How the values were obtained:
Test in all cases: relative viability (nuclei count vs DMSO), 5 days (fraction); higher = more cells survive
[1] = tested on: A-427
How it was run: (§1)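 Nuclei were stained with Hoechst during a one-step fixation (final 0.05% Triton X-100, 1% formaldehyde, 1 ug/ml Hoechst) carried out 5 days after dosing, then counted on 4× images. The cells, lung cancer lines in 1536-well plates, had been dosed by pin tool the day after seeding with one drug alone or a fixed anchor-drug dose plus five library-drug doses (not always all listed) in √10 steps. Relative viability is the nuclei count in treated wells divided by that in vehicle wells, and each value is the median of duplicate plates.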

[2] = tested on: A549
How it was run: as §1

[3] = tested on: HCC-44
How it was run: as §1

[4] = tested on: NCI-H1648
How it was run: as §1

[5] = tested on: NCI-H1650
How it was run: as §1

[6] = tested on: NCI-H1993
How it was run: as §1

[7] = tested on: NCI-H2023
How it was run: as §1

[8] = tested on: RERF-LC-KJ
How it was run: as §1

[9] = tested on: SW 1573
How it was run: as §1

[10] = tested on: IA-LM
How it was run: as §1

SMILES: COCC1(CO)C(=O)C2CCN1CC2 (configuration not stated) [PRIMA-1MET] + Nc1ncn([C@H]2C[C@H](O)[C@@H](CO)O2)c(=O)n1 [Decitabine] (partner 2 µM)
- relative viability ([1]; first compound 0.2 µM): 0.648
- relative viability ([1]; first compound 0.6325 µM): 0.532
- relative viability ([1]; first compound 2 µM): 0.621
- relative viability ([1]; first compound 6.325 µM): 0.568
- relative viability ([1]; first compound 20 µM): 0.501
- relative viability ([2]; first compound 0.2 µM): 0.284
- relative viability ([2]; first compound 2 µM): 0.253
- relative viability ([2]; first compound 6.325 µM): 0.25
- relative viability ([2]; first compound 20 µM): 0.237
- relative viability ([3]; first compound 0.2 µM): 1.04
- relative viability ([3]; first compound 0.6325 µM): 0.595
- relative viability ([3]; first compound 2 µM): 0.998
- relative viability ([3]; first compound 6.325 µM): 0.942
- relative viability ([3]; first compound 20 µM): 0.93
- relative viability ([4]; first compound 0.2 µM): 0.433
- relative viability ([4]; first compound 2 µM): 0.451
- relative viability ([4]; first compound 20 µM): 0.475
- relative viability ([5]; first compound 0.2 µM): 0.485
- relative viability ([5]; first compound 0.6325 µM): 0.314
- relative viability ([5]; first compound 2 µM): 0.314
- relative viability ([5]; first compound 6.325 µM): 0.382
- relative viability ([5]; first compound 20 µM): 0.279
- relative viability ([6]; first compound 0.2 µM): 0.57
- relative viability ([6]; first compound 2 µM): 0.57
- relative viability ([6]; first compound 6.325 µM): 0.731
- relative viability ([6]; first compound 20 µM): 0.564
- relative viability ([7]; first compound 0.2 µM): 0.211
- relative viability ([7]; first compound 0.6325 µM): 0.128
- relative viability ([7]; first compound 2 µM): 0.235
- relative viability ([7]; first compound 6.325 µM): 0.216
- relative viability ([7]; first compound 20 µM): 0.209
- relative viability ([8]; first compound 0.2 µM): 0.753
- relative viability ([8]; first compound 0.6325 µM): 0.617
- relative viability ([8]; first compound 2 µM): 0.718
- relative viability ([8]; first compound 6.325 µM): 0.69
- relative viability ([8]; first compound 20 µM): 0.595
- relative viability ([9]; first compound 0.2 µM): 0.58
- relative viability ([9]; first compound 2 µM): 0.285
- relative viability ([9]; first compound 6.325 µM): 0.0265
- relative viability ([9]; first compound 20 µM): 0.0223

SMILES: COCC1(CO)C(=O)C2CCN1CC2 (configuration not stated) [PRIMA-1MET] + O=C(CCCCCCC(=O)Nc1ccccc1)NO [Vorinostat] (partner 1 µM)
- relative viability ([1]; first compound 0.2 µM): 1.1
- relative viability ([1]; first compound 0.6325 µM): 0.869
- relative viability ([1]; first compound 2 µM): 0.856
- relative viability ([1]; first compound 6.325 µM): 0.949
- relative viability ([1]; first compound 20 µM): 0.865
- relative viability ([3]; first compound 0.2 µM): 1.08
- relative viability ([3]; first compound 0.6325 µM): 1.03
- relative viability ([3]; first compound 2 µM): 1.18
- relative viability ([3]; first compound 6.325 µM): 1.18
- relative viability ([3]; first compound 20 µM): 1.06
- relative viability ([10]; first compound 0.2 µM): 0.971
- relative viability ([10]; first compound 0.6325 µM): 0.74
- relative viability ([10]; first compound 2 µM): 0.926
- relative viability ([10]; first compound 6.325 µM): 1.06
- relative viability ([10]; first compound 20 µM): 1.05
- relative viability ([4]; first compound 0.2 µM): 0.668
- relative viability ([4]; first compound 2 µM): 0.445
- relative viability ([4]; first compound 20 µM): 0.621
- relative viability ([5]; first compound 0.2 µM): 0.619
- relative viability ([5]; first compound 0.6325 µM): 0.403
- relative viability ([5]; first compound 2 µM): 0.55
- relative viability ([5]; first compound 6.325 µM): 0.703
- relative viability ([5]; first compound 20 µM): 0.406
- relative viability ([6]; first compound 0.2 µM): 0.743
- relative viability ([6]; first compound 2 µM): 0.629
- relative viability ([6]; first compound 6.325 µM): 0.651
- relative viability ([6]; first compound 20 µM): 0.619
- relative viability ([7]; first compound 0.2 µM): 1.06
- relative viability ([7]; first compound 0.6325 µM): 0.474
- relative viability ([7]; first compound 2 µM): 0.442
- relative viability ([7]; first compound 6.325 µM): 0.734
- relative viability ([7]; first compound 20 µM): 0.254
- relative viability ([8]; first compound 0.2 µM): 0.817
- relative viability ([8]; first compound 0.6325 µM): 0.507
- relative viability ([8]; first compound 2 µM): 0.589
- relative viability ([8]; first compound 6.325 µM): 0.911
- relative viability ([8]; first compound 20 µM): 0.659
- relative viability ([9]; first compound 0.2 µM): 0.83
- relative viability ([9]; first compound 0.6325 µM): 0.553
- relative viability ([9]; first compound 2 µM): 0.429
- relative viability ([9]; first compound 6.325 µM): 0.0463
- relative viability ([9]; first compound 20 µM): 0.0325
